Measurements from ChEMBL document CHEMBL1201862, “PubChem BioAssay data set” (2004).
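Compound exposure: 48 hours, 5 concentrations, 96-well plates. GI50 marks 50% less growth.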 The source made the active and inactive calls. Cut-off read from the data, not from the text of the source: active = GI50 up to about 1.1 µM and inactive = higher.

Key:
Assay in all cases: NCI-60 cell line screen, 48 h
[1] = system: A549
[2] = system: SNB-75
[3] = system: SK-MEL-28
[4] = system: NCI-H460
[5] = system: TK-10
[6] = system: Hs-578T
[7] = system: SK-OV-3
[8] = system: EKVX
[9] = system: SF-268
[10] = system: NCI-H226
[11] = system: HCC 2998
[12] = system: MDA-MB-435
[13] = system: NCI-H23
[14] = system: OVCAR-4
[15] = system: 786-0
[16] = system: MOLT-4
[17] = system: SK-MEL-5
[18] = system: BT-549
[19] = system: SK-MEL-2
[20] = system: MDA-N

Measured: GI50

O=C(O)CCC(=O)Nc1ccc2ccccc2c1
inactive: [1] > 100 µM | [2] > 100 µM | [3] > 100 µM | [4] > 100 µM | [5] > 100 µM | [6] > 100 µM | [7] > 100 µM | [8] > 100 µM | [9] > 100 µM | [10] > 100 µM | [11] > 100 µM | [12] > 100 µM | [13] > 100 µM | [14] > 100 µM | [15] > 100 µM | [16] > 100 µM | [17] > 100 µM | [18] > 100 µM | [19] > 100 µM | [20] > 100 µM

CCOP(=O)(OCC)C(c1ccc(F)cc1)N(C(=O)NC(F)(F)F)c1cccc(C(F)(F)F)c1 (stereo not given)
inactive: [1] 82.2 µM | [2] 46.9 µM | [3] > 100 µM | [4] 91.4 µM | [5] > 100 µM | [6] 59.8 µM | [7] > 100 µM | [8] > 100 µM | [9] > 100 µM | [10] > 100 µM | [11] > 100 µM | [12] > 100 µM | [13] > 100 µM | [14] 96.4 µM | [15] > 10 µM | [16] 61.9 µM | [17] > 100 µM | [18] > 100 µM | [19] > 100 µM | [20] > 100 µM

[N-]=[N+]=Nc1ccccc1C(=O)N1C(=O)c2ccccc2C(=O)N(C(=O)c2ccccc2N=[N+]=[N-])c2ccccc21
inactive: [1] 37.1 µM | [2] 21.4 µM | [3] > 100 µM | [4] 66.7 µM | [5] 67.5 µM | [6] 35.6 µM | [7] 31.2 µM | [8] > 100 µM | [9] 71 µM | [10] > 100 µM | [11] > 100 µM | [12] 43.5 µM | [13] 86.5 µM | [14] > 100 µM | [15] 28.4 µM | [16] 13.9 µM | [17] 47.2 µM | [18] 55.2 µM | [19] 37.9 µM | [20] 59.3 µM

COc1cccc(O)c1-c1cc(=O)c2c(O)c(OC)c(OC)c(OC)c2o1 [SKULLCAPFLAVONE II]
inactive: [1] 29 µM | [2] 23 µM | [3] 35.8 µM | [4] 19.1 µM | [5] 44.8 µM | [6] 35.9 µM | [7] 28.4 µM | [8] 32.7 µM | [9] 35.3 µM | [10] 47.2 µM | [11] 7.59 µM | [12] 10.3 µM | [13] 24.9 µM | [14] 30.3 µM | [15] 42.6 µM | [16] 29.2 µM | [17] 19 µM | [18] 27.2 µM | [19] 20.9 µM | [20] 12.9 µM

CCOC(=O)/C=C(/C(=O)OCC)n1cc(C)c(=O)n(Cc2cnnn2CCCCOC(C)=O)c1=O
inactive: [1] > 100 µM | [2] > 100 µM | [3] 25.2 µM | [4] 23.3 µM | [5] 12.6 µM | [6] 45.5 µM | [7] > 100 µM | [8] 21.8 µM | [9] 36.6 µM | [10] > 100 µM | [11] > 10 µM | [12] 21.2 µM | [13] 28.7 µM | [14] 48.5 µM | [15] 15.6 µM | [16] 18.2 µM | [17] 30 µM | [18] 10.5 µM | [19] 86.9 µM | [20] 55.3 µM

[N-]=[N+]=CC(=O)OC1Cc2ccccc2C1
inactive: [1] 84.3 µM | [2] 50.4 µM | [3] > 100 µM | [4] > 100 µM | [5] 97.3 µM | [6] 42.9 µM | [7] > 100 µM | [8] > 100 µM | [9] > 100 µM | [10] > 93.3 µM | [11] > 100 µM | [12] > 100 µM | [13] > 100 µM | [14] > 100 µM | [15] > 81.7 µM | [16] > 100 µM | [17] > 56.6 µM | [18] > 100 µM | [19] > 100 µM | [20] > 100 µM

N#Cc1nnn(C2CCCCC2)c1O
inactive: [1] > 100 µM | [2] > 100 µM | [3] > 100 µM | [4] > 100 µM | [5] > 100 µM | [6] > 100 µM | [7] > 100 µM | [8] > 100 µM | [9] > 100 µM | [10] > 100 µM | [11] > 100 µM | [12] > 100 µM | [13] > 100 µM | [14] > 100 µM | [15] > 100 µM | [16] > 100 µM | [17] > 100 µM | [18] > 100 µM | [19] > 100 µM | [20] > 100 µM

Cc1c(C#N)c(=N)oc2ccccc12
inactive: [1] > 100 µM | [2] 57.5 µM | [3] > 100 µM | [4] > 100 µM | [5] > 100 µM | [6] > 100 µM | [7] > 100 µM | [8] 49.8 µM | [9] > 100 µM | [10] > 100 µM | [11] > 100 µM | [12] > 100 µM | [13] > 100 µM | [14] > 100 µM | [15] > 100 µM | [16] > 100 µM | [17] > 100 µM | [18] > 100 µM | [19] 84.1 µM | [20] > 100 µM
